In patent US20210130291A1, “METHODS FOR TREATING DIABETES USING VDAC1 INHIBITORS” (THE NATIONAL INSTITUTE FOR BIOTECHNOLOGY IN THE NEGEV LTD., priority 2016, published 2021):
Entries after “also recorded” stand apart in the source; their conditions may differ. Values belong to the molecule of their own block, whether it stands above or below them.

Assays:
[1] = system: VDAC1 mRNA in human islets; assay: VDAC1 mRNA in non-diabetic human islets cultured under glucotoxic condition; type: cell-based; settings: 72 h at 20 mM glucose, metformin 20 μM (FIG. 1d)
Protocol: Total RNA from handpicked mouse islets, human donor islets (Diabetic and non-diabetic) or [MUT] cells were extracted using RNAeasy (Qiagen, Hilden, Germany). […] Concentration and purity of total RNA was measured with a NanoDrop ND-1000 spectrophotometer (A260/A280>1.9 and A260/A230>1.4) (NanoDrop Technologies, Wilmington, Del.) and RNA Quality Indicator (RQI) higher than 8.0 (Experion Automated Electrophoresis, Bio-Rad, USA) was considered to be high-quality total RNA preparations. […] The qPCR was carried out as follows: 50° C. for 2 minutes, 95° C. for 10 minutes, 40 cycles of 95° C. for 15 seconds, and 60° C. for 1 minute. […] VDAC1 and VDAC2 mRNA and protein level were investigated by both qPCR and Western blotting relative to the expression of GAPDH and β-actin respectively.

[2] = target: T1, plasma membrane targeted VDAC1 (plVDAC1) (Mus musculus, UniProt Q60932); assay: ATP release and ATP content of INS-1 cells transfected with plasma membrane targeted VDAC1; type: cell-based; settings: plVDAC1-transfected INS-1 cells, 1 h at 1 mM glucose; for ATP release (loss of cellular ATP): VDAC1-ab 10 nM, metformin, AKOS, VBIT-4 20 μM each (FIG. 4c)
T1 construct: expressed in transfected cells; host or cells: INS-1 832/13 cells (rat insulinoma), transient transfection; plasmid a gift from Dr. R. Buettner
Protocol: (§1) ATP release from isolated mouse or human islets or from INS-1 cells after transfection with mitochondrial targeted VDAC1 (mtVDAC1) or plasma membrane targeted VDAC1 (plVDAC1) plasmids was determined using a luminometric assay kit according to manufacturer's recommendation (Biovision). After incubation of islets (50/vial) or INS-1 cells for 60 min, an aliquot of the media was removed for subsequent measurements of released ATP. Then the islets or INS-1 cells were washed 3 times and the lysates were used for measurements of ATP and protein contents followed the protocol provided by the vendor.
INS-1 cells were transiently transfected with a plasmid encoding plasma membrane targeted VDAC1 (pVDAC1) as described in the Material and Method section herein above and in Example 3 (see also Buettner et al 2000. PNAS 97:3201-3206). After transfection (24-32 h and 2-4 h recovery in normal culture medium, RPMI 1640 with complete supplement) the INS-1 cells were washed followed by preincubation in SAB-buffer (See Material and Method above) containing 2.8 mM glucose. The final 1 h incubation was performed in SAB-buffer containing 1 mM glucose and the VDAC1 inhibitory compounds to be tested. At the end, the cells were lysed using lysis buffer, sonicated and the lysate as well as the incubation medium were analyzed for ATP content using a commercially available kit (Biovision, K354-100). Cellular protein content was analyzed by Pierce™ BCA protein assay kit (Thermo Scientific, USA).

[3] = system: islets of diabetic db/db mice; assay: ATP content, ATP release and GSIS in islets of diabetic db/db mice; type: cell-based, mouse
Protocol: (§2) 5 weeks old db/db mice and control (C57/bl) (Janvier Laboratory, France), weighing 18-25 g, were used throughout the experiments. They were given a standard pellet diet (B&K) and tap water ad libitum. The experimental procedures were approved by the Ethics Committee for Animal Research at Lund University. Isolation of pancreatic islets was performed by retrograde injection of a collagenase solution via the bile-pancreatic duct and islets were then collected under a stereomicroscope at room temperature.
Human pancreatic islets were collected under a stereomicroscope at room temperature and cultured at 5.5 or 20 mM glucose in the absence or presence of test agents for 72 h. Thereafter the islets were washed and preincubated for 30 min at 37° C. in Krebs Ringer bicarbonate buffer, pH 7.4, supplemented with N-2 hydroxyethylpiperazine-N′-2-ethanesulfonic acid (10 mM), 0.1% bovine serum albumin, and 1 mM glucose. Each incubation vial contained 12 islets in 1.0 ml KRB buffer solution and treated with 95% O2 and 5% CO2 to obtain constant pH and oxygenation. After preincubation, the buffer was changed to a medium containing either 1 mM or 16.7 mM glucose. The islets were then incubated for 1 h at 37° C. in a metabolic shaker (30 cycles per min). Immediately after incubation an aliquot of the medium was removed for analysis of insulin and the islets were incubated in acid-ethanol for insulin content determination by radioimmunoassay.
as §1

human ND islets = assay: GSIS in non-diabetic human islets cultured at 5 or 20 mM glucose; type: cell-based
Source text: Human pancreatic islets were obtained through collaboration between Human Tissue Laboratory within Lund University Diabetes Centre (LUDC) and the Nordic Network for Clinical Islet Transplantation (Prof. Olle Korsgren, Uppsala University, Sweden). Donors were grouped according to HbA1c i.e. less than 6% (ND), between 6% and 6.5% (IGT), higher than 6.5% or history of diabetes (T2D). The human islets (70-90% purity) had been cultured in CMRL 1066 (ICN Biomedicals, Costa Mesa, Calif.) supplemented with 10 mM HEPES, 2 mM L-glutamine, […] gentamicin, […] fungizone (Gibco, BRL, Gaithersburg, Md.), 20 μg/ml ciprofloxacin (Bayer Healthcare, Leverkusen, Germany) and 10 mM nicotinamide at 37° C. (5% CO2) for 1 to 5 days prior to the arrival in the laboratory. The islets were then hand-picked under stereomicroscope prior to use. All procedures using human islets were approved by the ethical committees at Uppsala and Lund Universities, Sweden.
Human pancreatic islets were collected under a stereomicroscope at room temperature and cultured at 5.5 or 20 mM glucose in the absence or presence of test agents for 72 h. Thereafter the islets were washed and preincubated for 30 min at 37° C. in Krebs Ringer bicarbonate buffer, pH 7.4, supplemented with N-2 hydroxyethylpiperazine-N′-2-ethanesulfonic acid (10 mM), 0.1% bovine serum albumin, and 1 mM glucose. […]

VDAC1 = VDAC1 (Rattus norvegicus, UniProt Q9Z2L0); assay: Channel conductance of VDAC1 reconstituted in planar lipid bilayer
db/db mice [4] = assay: Daily i.p. injection of VBIT-4 in db/db and C57/BL mice (blood glucose, IPGTT); type: in vivo, mouse
Protocol: as §2
IPGTTs were performed in db/db and c57/bl mice after treatment with VDAC1 blocker (daily intraperitoneal injection with VBIT-4, […]) for 5 weeks. Prior to IPGTT test, the mice were fasted for 4 h. Glucose was dissolved in 0.9% NaCl and 2.0 g glucose/kg body weight was injected intraperitoneally. Serial blood sampling thereafter from vena saphena was performed at 0, 5, 15, 30 and 90 min as previously described elsewhere 35. Blood glucose was analyzed using glucose oxidase method and plasma insulin was analyzed by ELISA (Salehi, A. et al. 2008. PLoS ONE 3, e2165; Rosengren, A. H. et al. 2010. Science 327, 217-220). Total volume load was 0.3 ml. The Cumulative (area under the curve) changes in plasma glucose or insulin were calculated by subtracting the recorded values from basal (time 0).

db/db mice [5] = assay: Oral (gavage) administration of VBIT-4 to db/db mice, blood glucose; type: in vivo, mouse
Protocol: Next, the effect of orally administered VBIT-4 on blood glucose in db/db mice was examined. VBIT-4 at the indicated doses or vehicle was administered by gavage to db/db mice from the age of 6-11 weeks. Blood was sampled and […] once a week. Blood glucose was measured by a handheld device ContourXt (Bayer) using blood glucose strips.

T1 sequence (Q60932 whole entry): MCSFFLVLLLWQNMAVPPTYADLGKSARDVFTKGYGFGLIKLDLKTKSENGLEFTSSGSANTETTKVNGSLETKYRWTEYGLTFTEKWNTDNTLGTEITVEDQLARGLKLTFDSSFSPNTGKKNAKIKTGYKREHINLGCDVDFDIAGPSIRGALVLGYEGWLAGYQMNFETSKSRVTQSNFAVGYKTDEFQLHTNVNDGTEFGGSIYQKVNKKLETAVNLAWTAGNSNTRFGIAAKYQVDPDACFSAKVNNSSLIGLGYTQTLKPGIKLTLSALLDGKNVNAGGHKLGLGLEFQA
VDAC1, sequence (Q9Z2L0 whole entry): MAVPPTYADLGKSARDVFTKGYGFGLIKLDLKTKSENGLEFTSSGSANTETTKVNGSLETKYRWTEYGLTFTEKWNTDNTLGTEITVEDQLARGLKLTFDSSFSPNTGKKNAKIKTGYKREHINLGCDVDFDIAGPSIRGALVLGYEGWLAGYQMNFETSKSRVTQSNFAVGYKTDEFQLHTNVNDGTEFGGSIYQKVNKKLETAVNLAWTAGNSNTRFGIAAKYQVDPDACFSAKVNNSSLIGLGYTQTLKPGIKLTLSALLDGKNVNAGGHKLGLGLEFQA

conductance of VDAC1 reconstituted into a planar lipid bilayer (VDAC1; metformin 30 μM, 10-30 min after addition (FIG. 4g)): blocks conductance
inhibition at 30 µM (VDAC1; read-out: inhibition of channel conductance): 50%
SMILES: CN(C)C(=N)N=C(N)N [metformin]
VDAC1 mRNA [1]: prevented the increase in VDAC1 mRNA
ATP release (loss of cellular ATP) [2]: prevented; also recorded: rapidly inhibited
insulin secretion in low glucose ([3]; islets from hyperglycemic db/db mice (FIG. 6c)): no effect
cellular ATP levels ([3]; islets from hyperglycemic db/db mice, acute addition 1 h, VDAC1 antibody 10 nM, metformin 20 μM (FIG. 6a)): increased its cellular levels
ATP release ([3]; islets from hyperglycemic db/db mice, acute addition 1 h, VDAC1 antibody 10 nM, metformin 20 μM (FIG. 6b)): reduced ATP release
insulin secretion at 16.7 mM glucose ([3]; islets from hyperglycemic db/db mice, compared to control (FIG. 6c)): increased insulin secretion
GSIS after culture at 5 mM glucose (human ND islets; 72 h culture with agent (FIG. 6d)): unaffected
GSIS after culture at 20 mM glucose (human ND islets; 72 h culture with agent, then 1 h at 1G or 16.7G (FIG. 6d)): prevented the attenuation of GSIS

SMILES: O=C(CC(CO)N1CCN(c2ccc(OC(F)(F)F)cc2)CC1)Nc1ccc(Cl)cc1 (racemic) [VBIT-4, N-(4-chlorophenyl)-4-hydroxy-3-(4-(4-(trifluoromethoxy)phenyl)-piperazin-1-yl)butanamide]
ATP release ([2]; racemate and enantiomers (FIG. 9a), listed as racemic VBIT-4): efficiently inhibit ATP release; also recorded: no discernible difference
cellular ATP content ([2]; racemate and enantiomers (FIG. 9b), listed as racemic VBIT-4): increase cellular ATP content; also recorded: intermediate between that of its enantiomers 1 and 2
ATP release (loss of cellular ATP) [2]: prevented; also recorded: rapidly inhibited
effects in animals with severe diabetes (db/db mice [4]; 14-week old db/db animals with severe diabetes, data not shown): only marginal effects
effects in control mice (db/db mice [4]; C57/BL mice, daily i.p. VBIT-4 from age 6 to 11 weeks): no effects
glucose tolerance (IPGTT, 2 g/kg) (db/db mice [4]; db/db mice after 5 weeks VBIT-4 i.p. (FIG. 7g, 7h)): markedly improved
GSIS in vivo and in isolated islets (db/db mice [4]; db/db mice after 5 weeks VBIT-4 i.p. (FIG. 7i, 7k, 7l)): markedly improved
blood glucose concentrations upon VBIT-4 cessation (db/db mice [4]; db/db mice followed after 5 weeks treatment (FIG. 7f)): rose gradually over several weeks
development of hyperglycemia (blood glucose) (db/db mice [4]; db/db mice, daily i.p. 25 mg/kg from age 6 to 11 weeks, vs vehicle (FIG. 7f)): prevented the development of the severe hyperglycemia
water consumption and urine production (db/db mice [4]; db/db mice, early administration, data not shown): prevented increases in water consumption and urine production
blood glucose (db/db mice [5]; daily gavage for 5 weeks, age 6-11 weeks (FIG. 8)): reduced blood glucose
reduction of blood glucose concentration (db/db mice [5]; gavage, 10 mg/Kg body weight, 5 weeks): the reduction was significant along the entire trail period
